Reference: patent publication US11484539B2, “Compounds and their uses for alleviating menopause-associated symptoms” (Estetra SPRL, priority 2018, dated 2022)

System: post-menopausal women
Test: Hot Flush Weekly Weighted Score, dose-finding study
Type: in vivo
Details: for Relative change in Hot Flush Weekly Weighted Score, LS adjusted mean: analysis with placebo grouped with 2.5 and 5 mg; for LS adjusted mean change from baseline in Hot Flush Weekly Weighted Score: 15 mg E4; for Covariate significance, covariate trt1, p_value, relative change in Hot Flush Weekly Weighted Score: 15 mg vs placebo grouped with 2.5 and 5 mg
Procedure: Further, the terms “Hot Flush Weekly Weighted Score”, as used herein, corresponds to a score taking into account frequency and severity which is calculated by using the severity score (as calculated above): [(1× No. of mild VMS)+(2× No. of moderate VMS)+(3× No. of severe VMS)] during a 7 day period.
Such a weighted score was for example used by Notelovitz et al. (“Initial 17β-Estradiol Dose for Treating Vasomotor Symptoms”; Obstetrics and Gynaecology, Vol. 95(5), May 2000, p. 726-731). This score was used to generate the data included in Example 1 further below, under section A. c) “Hot Flush Weekly Weighted Score”.

## C[C@]12CC[C@@H]3c4ccc(O)cc4CC[C@H]3[C@@H]1[C@@H](O)[C@@H](O)[C@@H]2O [E4, 1,3,5 (10)-estratrien-3,15alpha,16alpha,17beta-tetrol]
10 mg E4 QD per os, week 9
  Relative change (% from baseline) in Hot Flush Weekly Weighted Score, mean: −67%
10 mg E4 QD per os, week 10
  Mean change from baseline in Hot Flush Weekly Weighted Score: −109.514
  Relative change (% from baseline) in Hot Flush Weekly Weighted Score, mean: −68%
10 mg E4 QD per os, week 11
  Mean change from baseline in Hot Flush Weekly Weighted Score: −109.532
  Relative change (% from baseline) in Hot Flush Weekly Weighted Score, mean: −69%
10 mg E4 QD per os, week 12
  Mean change from baseline in Hot Flush Weekly Weighted Score: −111.764
  Relative change (% from baseline) in Hot Flush Weekly Weighted Score, mean: −70%
10 mg E4 vs placebo, week 4
  Difference with placebo, LS adjusted mean, absolute change in Hot Flush Weekly Weighted Score: −7.296
10 mg E4 vs placebo, week 12
  Difference with placebo, LS adjusted mean, absolute change in Hot Flush Weekly Weighted Score: −5.078
10.0 mg vs 0 mg, week 4
  Differences with placebo (including ineffective doses 2.5 mg and 5 mg), relative change in Hot Flush Weekly Weighted Score, LS adjusted mean: −0.06006
  Differences with placebo (including ineffective doses 2.5 mg and 5 mg), relative change in Hot Flush Weekly Weighted Score, p_value: 0.4167
  Differences with placebo, relative change in weekly weighted score, p_value: 0.6745
10.0 mg vs 0 mg, week 12
  Differences with placebo (including ineffective doses 2.5 mg and 5 mg), relative change in Hot Flush Weekly Weighted Score, LS adjusted mean: −0.08625
  Differences with placebo (including ineffective doses 2.5 mg and 5 mg), relative change in Hot Flush Weekly Weighted Score, p_value: 0.1404
  Differences with placebo, relative change in weekly weighted score, p_value: 0.7861
10 mg, Week 12
  Relative change (% from baseline) in Hot Flush Weekly Weighted Score, mean: −69%
  Relative change (% from baseline) in weekly weighted score, LS adjusted mean: −0.6994
10 mg, week 0
  Relative change (% from baseline) in Hot Flush Weekly Weighted Score, mean: 0%
10 mg, week 1
  Relative change (% from baseline) in Hot Flush Weekly Weighted Score, mean: −20%
10 mg, week 2
  Relative change (% from baseline) in Hot Flush Weekly Weighted Score, mean: −34%
10 mg, week 3
  Relative change (% from baseline) in Hot Flush Weekly Weighted Score, mean: −46%
10 mg, week 4
  Relative change (% from baseline) in Hot Flush Weekly Weighted Score, mean: −53%
  Relative change (% from baseline) in weekly weighted score, LS adjusted mean: −0.5419
  Relative change in Hot Flush Weekly Weighted Score, LS adjusted mean: −0.5137
10 mg, week 5
  Relative change (% from baseline) in Hot Flush Weekly Weighted Score, mean: −57%
10 mg, week 6
  Relative change (% from baseline) in Hot Flush Weekly Weighted Score, mean: −62%
10 mg, week 7
  Relative change (% from baseline) in Hot Flush Weekly Weighted Score, mean: −64%
10 mg, week 8
  Relative change (% from baseline) in Hot Flush Weekly Weighted Score, mean: −66%
10 mg, week 9
  Relative change (% from baseline) in Hot Flush Weekly Weighted Score, mean: −66%
10 mg, week 10
  Relative change (% from baseline) in Hot Flush Weekly Weighted Score, mean: −68%
10 mg, week 11
  Relative change (% from baseline) in Hot Flush Weekly Weighted Score, mean: −68%
10 mg, week 12
  Relative change in Hot Flush Weekly Weighted Score, LS adjusted mean: −0.6776
Week 4
  LS adjusted mean change from baseline in Hot Flush Weekly Weighted Score: −106.3
Week 12
  LS adjusted mean change from baseline in Hot Flush Weekly Weighted Score: −130.6
15 mg E4 QD per os, week 0
  Mean change from baseline in Hot Flush Weekly Weighted Score: 2.219
15 mg E4 QD per os, week 1
  Mean change from baseline in Hot Flush Weekly Weighted Score: −33.1745
  Relative change (% from baseline) in Hot Flush Weekly Weighted Score, mean: −19%
15 mg E4 QD per os, week 2
  Mean change from baseline in Hot Flush Weekly Weighted Score: −67.6983
  Relative change (% from baseline) in Hot Flush Weekly Weighted Score, mean: −43%
15 mg E4 QD per os, week 3
  Mean change from baseline in Hot Flush Weekly Weighted Score: −85.1915
  Relative change (% from baseline) in Hot Flush Weekly Weighted Score, mean: −56%
15 mg E4 QD per os, week 4
  Mean change from baseline in Hot Flush Weekly Weighted Score: −98.8329
  Relative change (% from baseline) in Hot Flush Weekly Weighted Score, mean: −66%
15 mg E4 QD per os, week 5
  Mean change from baseline in Hot Flush Weekly Weighted Score: −105.223
  Relative change (% from baseline) in Hot Flush Weekly Weighted Score, mean: −70%
15 mg E4 QD per os, week 6
  Mean change from baseline in Hot Flush Weekly Weighted Score: −110.268
  Relative change (% from baseline) in Hot Flush Weekly Weighted Score, mean: −74%
15 mg E4 QD per os, week 7
  Mean change from baseline in Hot Flush Weekly Weighted Score: −115.263
  Relative change (% from baseline) in Hot Flush Weekly Weighted Score, mean: −78%
15 mg E4 QD per os, week 8
  Mean change from baseline in Hot Flush Weekly Weighted Score: −115.656
  Relative change (% from baseline) in Hot Flush Weekly Weighted Score, mean: −78%
15 mg E4 QD per os, week 9
  Mean change from baseline in Hot Flush Weekly Weighted Score: −118.578
  Relative change (% from baseline) in Hot Flush Weekly Weighted Score, mean: −80%
15 mg E4 QD per os, week 10
  Mean change from baseline in Hot Flush Weekly Weighted Score: −116.853
  Relative change (% from baseline) in Hot Flush Weekly Weighted Score, mean: −79%
15 mg E4 QD per os, week 11
  Mean change from baseline in Hot Flush Weekly Weighted Score: −119.365
  Relative change (% from baseline) in Hot Flush Weekly Weighted Score, mean: −80%
15 mg E4 QD per os, week 12
  Mean change from baseline in Hot Flush Weekly Weighted Score: −121.777
  Relative change (% from baseline) in Hot Flush Weekly Weighted Score, mean: −82%
15 mg E4 vs placebo, week 4
  Difference with placebo, LS adjusted mean, absolute change in Hot Flush Weekly Weighted Score: −28.06
15 mg E4 vs placebo, week 12
  Difference with placebo, LS adjusted mean, absolute change in Hot Flush Weekly Weighted Score: −25.91
15.0 mg vs 0 mg, week 4
  Differences with placebo (including ineffective doses 2.5 mg and 5 mg), relative change in Hot Flush Weekly Weighted Score, LS adjusted mean: −0.1788
  Differences with placebo (including ineffective doses 2.5 mg and 5 mg), relative change in Hot Flush Weekly Weighted Score, p_value: 0.00178
  Differences with placebo, relative change in weekly weighted score, p_value: 0.0267
15.0 mg vs 0 mg, week 12
  Differences with placebo (including ineffective doses 2.5 mg and 5 mg), relative change in Hot Flush Weekly Weighted Score, LS adjusted mean: −0.177
  Differences with placebo (including ineffective doses 2.5 mg and 5 mg), relative change in Hot Flush Weekly Weighted Score, p_value: 0.00097
  Differences with placebo, relative change in weekly weighted score, p_value: 0.0276
15 mg, Week 12
  Relative change (% from baseline) in Hot Flush Weekly Weighted Score, mean: −81%
  Relative change (% from baseline) in weekly weighted score, LS adjusted mean: −0.8122
15 mg, week 0
  Relative change (% from baseline) in Hot Flush Weekly Weighted Score, mean: 0%
15 mg, week 1
  Relative change (% from baseline) in Hot Flush Weekly Weighted Score, mean: −22%
15 mg, week 2
  Relative change (% from baseline) in Hot Flush Weekly Weighted Score, mean: −45%
15 mg, week 3
  Relative change (% from baseline) in Hot Flush Weekly Weighted Score, mean: −56%
15 mg, week 4
  Relative change (% from baseline) in Hot Flush Weekly Weighted Score, mean: −66%
  Relative change (% from baseline) in weekly weighted score, LS adjusted mean: −0.6503
  Relative change in Hot Flush Weekly Weighted Score, LS adjusted mean: −0.6324
15 mg, week 5
  Relative change (% from baseline) in Hot Flush Weekly Weighted Score, mean: −70%
15 mg, week 6
  Relative change (% from baseline) in Hot Flush Weekly Weighted Score, mean: −72%
15 mg, week 7
  Relative change (% from baseline) in Hot Flush Weekly Weighted Score, mean: −75%
15 mg, week 8
  Relative change (% from baseline) in Hot Flush Weekly Weighted Score, mean: −76%
15 mg, week 9
  Relative change (% from baseline) in Hot Flush Weekly Weighted Score, mean: −78%
15 mg, week 10
  Relative change (% from baseline) in Hot Flush Weekly Weighted Score, mean: −77%
15 mg, week 11
  Relative change (% from baseline) in Hot Flush Weekly Weighted Score, mean: −79%
15 mg, week 12
  Relative change in Hot Flush Weekly Weighted Score, LS adjusted mean: −0.7683
Week 4, 10 mg
  Covariate significance, covariate trt1, p_value, relative change in Hot Flush Weekly Weighted Score: 0.0037
Week 12, 10 mg
  Covariate significance, covariate trt1, p_value, relative change in Hot Flush Weekly Weighted Score: 0.0015
